Key:
Assay in all cases: relative viability (nuclei count vs DMSO), 5 days (fraction); higher = more cells survive
[1] = compound: C1=CC2=NC=CN=C2C=C1/C=C/3\C(=O)NC(=O)S3
Summary of the method: (§1)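 Only plates meeting two conditions passed: control CV below 25% and at least one doubling. Lung cancer cell lines, kept overnight at 37 °C in 1536-well plates, were pinned with five library-drug doses (not always all listed) √10 apart on vehicle-anchored plates and grown 5 days without medium change. A one-step fix, permeabilisation and Hoechst stain preceded 4× imaging and MetaXpress nuclear counting. Viability equals treated-well nuclei divided by vehicle-well nuclei, as the median over plates.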

BGJ398 = compound: CCN1CCN(c2ccc(Nc3cc(N(C)C(=O)Nc4c(Cl)c(OC)cc(OC)c4Cl)ncn3)cc2)CC1 [BGJ398]
Summary of the method: as §1

[2] = compound: C1=CC2=NC=CN=C2C=C1/C=C/3\C(=O)NC(=O)S3 + CS(=O)(=O)N1CCN(Cc2cc3nc(-c4cccc5[nH]ncc45)nc(N4CCOCC4)c3s2)CC1 [Pictilisib] (partner 1 µM)
Summary of the method: (§2)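 The day after seeding in 1536-well plates, lung cancer cell lines were treated by pin tool with a single drug, or with a fixed anchor-drug dose together with five library-drug doses (not always all listed) in √10 steps. After 5 days, a combined fix-and-stain solution (final 0.05% Triton X-100, 1% formaldehyde, 1 ug/ml Hoechst) was added. Nuclei counted on 4× images gave relative viability as treated counts over vehicle counts, reported as the median of duplicate plates.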

[3] = compound: C1=CC2=NC=CN=C2C=C1/C=C/3\C(=O)NC(=O)S3 + Cc1nc(NC(=O)N2CCC[C@H]2C(N)=O)sc1-c1ccnc(C(C)(C)C(F)(F)F)c1 [Alpelisib] (partner 2 µM)
Summary of the method: as §2

UMC-11
relative viability ([1]; 0.02 µM): 0.978
relative viability ([1]; 0.06325 µM): 1
relative viability ([1]; 0.2 µM): 1.01
relative viability ([1]; 0.6325 µM): 0.925
relative viability ([1]; 2 µM): 1.06
relative viability (BGJ398; 0.01 µM): 0.955
relative viability (BGJ398; 0.03162 µM): 1.05
relative viability (BGJ398; 0.1 µM): 1.05
relative viability (BGJ398; 0.3162 µM): 0.968
relative viability (BGJ398; 1 µM): 0.919
relative viability ([2]; first compound 0.02 µM): 0.839
relative viability ([2]; first compound 0.06325 µM): 0.914
relative viability ([2]; first compound 0.2 µM): 0.882
relative viability ([2]; first compound 0.6325 µM): 0.786
relative viability ([2]; first compound 2 µM): 0.952
relative viability ([3]; first compound 0.02 µM): 0.987
relative viability ([3]; first compound 0.06325 µM): 1.19
relative viability ([3]; first compound 0.2 µM): 0.989
relative viability ([3]; first compound 0.6325 µM): 0.948
relative viability ([3]; first compound 2 µM): 0.932
